Laboratory results taken from US8748383B2, “Method for treating bone related diseases and calcium disorders” (Novartis AG, priority 2003, dated 2014).

Experiments:
[1] = in vivo
[2] = Water solubility of delivery agent

Row | absorbed by the gastro-intestinal tract [1] | water solubility [2] | SMILES
1 | greater than 90% |  | O=C(O)CCCCCCCCCNC(=O)c1ccccc1O [SNAD, N-(10-[2-hydroxybenzoyl]amino)decanoic acid]
2 |  | very water soluble | O=C(O)CCCCCCCNC(=O)c1cc(Cl)ccc1O [5 CNAC, N-(5-chlorosalicyloyl)-8-aminocaprylic acid]
